Measurements published in patent publication US12685732B2, “Composition for improving, preventing or treating muscular disorders including sulfonamide-based compounds” (The Industry & Academic Cooperation in Chungnam National …, priority 2022, dated 2026).

What was measured:
[1] = Body weight in CTX-induced sarcopenia mouse model; assay type: in vivo; conditions: oral 50, 100, 500 mg/kg once/day 10 days, 14 days, except decrease in all groups on day 10 without diet supply
Experimental: (§1) Specifically, the Rota Rod was measured before CTX injection, and after CTX was injected (day 0), the drug was orally administered once/day for 10 days, and on days 4, 9, and 14, the Rota Rod was measured, respectively.
For a total of 14 days, the body weights of the mice were measured, and any change in body weight was confirmed.
(§2) Specifically, the grip strength was measured before CTX injection, and after CTX was injected (day 0), the drug was orally administered once/day for 10 days, and on days 4, 9, and 14, the grip strength was measured, respectively.

C57BL/6J mice [2] = assay: Single oral dose toxicity: tissue weights at autopsy; assay type: in vivo, mouse; conditions: single oral 100, 500, 1000 mg/kg; male and female; day 14
Experimental: The body weights were measured before administration, and on 1 day, 3 days, 7 days, and 14 days after administration, and an autopsy was performed on day 14.
In the present disclosure, a single oral dose toxicity test refers to a test that qualitatively and quantitatively examines toxicity in a short period of time when a test substance was administered to test animals in a single dose (including divided doses within 24 hours).

[3] = test system: CTX-induced sarcopenia mouse model; assay: Rota Rod balance ability in CTX-induced sarcopenia mouse model; assay type: in vivo; conditions: oral 50, 100, 500 mg/kg once/day 10 days; days 4, 9, 14; vs (+)PBS group
Experimental: as §1

C57BL/6J mice [4] = assay: Single oral dose toxicity: blood liver, heart and kidney toxicity markers; conditions: single oral 100, 500, 1000 mg/kg; male and female; serum day 14
Experimental: 7-week-old male and female C57BL/6J mice with the body weight of 20±3 g were obtained from DooYeol Biotech (Seoul, South Korea). The mice were bred under constant room temperature and 12 h night/day cycle for 1 week before the experiment, and the mice were fed with a standard rodent diet and were freely taken with water.
The collected blood was left at room temperature for 1 hour to be coagulated, and the serum was isolated by operating a centrifuge (13,000 rpm) for 20 minutes. Blood analysis was performed by dividing liver toxicity, heart toxicity, and kidney toxicity, and the analysis was conducted by requesting DooYeol Biotech (Seoul, Korea).

[5] = test system: CTX-induced sarcopenia mouse model; assay: Muscle regeneration by H&E staining in CTX-induced sarcopenia mouse model; assay type: in vivo; conditions: 4 μM oral, 24 h after CTX; tissue on days 3, 6, 10; vs non-administered control
Experimental: (§3) In order to construct a CTX-induced sarcopenia mouse model, cardiotoxin (LATOXAN, Portes-les-Valence, France) was dissolved at 1 mg/ml in PBS to make a high-concentration stock solution. To apply to the mice, the stock solution was diluted again in PBS at a final concentration of 0.03 mg/ml and used, and intramuscularly injected into both thigh muscles of the mouse using a 1 ml syringe (24 G) to construct a sarcopenia mouse model.
Specifically, for mouse muscle tissue immunostaining, the muscle tissues of a comparative group and a sulfamethazine-treated group were fixed in 4% paraformaldehyde, washed, and fixed in paraffin. Tissues were cut to a thickness of about […], fixed to a slide, and then stained using an antibody for each muscle type.

[6] = test system: CTX-induced sarcopenia mouse model; assay: Grip strength recovery in CTX-induced sarcopenia mouse model; assay type: in vivo; conditions: oral 50, 100, 500 mg/kg once/day 10 days, days 4, 9, 14
Experimental: as §2

[7] = test system: C2C12-PHF20/YY1-promoter-GFP cell line; assay: HTS system: GFP (green luminescence) in PHF20-overexpressing myoblasts carrying YY1 promoter-GFP; assay type: cell-based, mouse; conditions: 1 nM, 10 nM, 100 nM, 1 μM or 10 μM
Source text: C2C12 myoblasts, which were stable cells in which PHF20 was overexpressed, were transformed with a plasmid coexisting with a YY1 promoter and GFP, which inhibited muscle differentiation, to prepare a stable cell line. The degree of GFP signal suppression was quantified and measured, and the degree of muscle differentiation was used as a quantitative measurement index (FIG. 1).
Specifically, the C2C12-PHF20/YY1-promoter-GFP cell line according to Example 1 was dispensed in a 96-well plate at 0.5×10^5, cultured for 24 hours, and cells in a 70% confluent state were treated with 250 ng/ml of doxycycline for 24 hours, and then treated with each compound at a final concentration of 10 μM.
For fluorescence intensity, C2C12-PHF20/YY1-promoter-GFP cells were dispensed at 4×10^5 in a 6-well culture plate and cultured for 24 hours. […] Thereafter, the degree of green luminescence was confirmed using GloMax microplate readers explorer (Promega, Madison, Wisconsin, USA).

C57BL/6J mice [8] = assay: Single oral dose toxicity: liver pathology by H&E staining; assay type: in vivo, mouse; conditions: single oral 100, 500, 1000 mg/kg; male and female; day 14
Experimental: As in Example 7-1, mice with single oral administration were dissected on day 14 after administration, and histochemical toxicity was evaluated. The pathology of the liver was observed through H&E staining on the dissected liver tissue.

[9] = test system: CTX-induced sarcopenia mouse model; assay: Muscle recovery by muscle type (myosin I, IIa, IIb antibody staining) in CTX-induced sarcopenia mouse model; assay type: in vivo; conditions: 4 μM oral
Experimental: as §3

sulfamethazine
body weight ([1]; Rota Rod study): no change in body weight was observed
body weight ([1]; grip strength study): no change in body weight was observed
tissue weight (C57BL/6J mice [2]): no singularity in tissue weight
balance ability of the Rota Rod [3]: the higher the dose of sulfamethazine, the higher the balance ability of the Rota Rod
blood liver toxicity, heart toxicity and kidney toxicity markers (C57BL/6J mice [4]): no specific phenomena related to liver toxicity, heart toxicity, and kidney toxicity
degree of muscle differentiation / regeneration by H&E staining [5]: the muscle was regenerated compared to the control group
grip strength, all four paws [6]: grip strength was increased in a sulfamethazine concentration-dependent manner
grip strength, hind legs (2 paws) ([6]; vs (+)PBS group): grip strength of mice increased as the dose of sulfamethazine increased
intensity of green fluorescence by concentration [7]: the higher the treated concentration of sulfamethazine, the weaker the intensity of fluorescence
liver pathology (H&E) (C57BL/6J mice [8]): no specific pathological findings were observed
expression of myosin I ([9]; day 6): expression of blue-stained myosin I was increased
muscle image by myosin type staining ([9]; day 10): recovered similarly to that of a normal control group on day 0
expression of myosin IIa and myosin IIb ([9]; vs control group): increase in expressions of green myosin IIa and red myosin IIb
